Assay results: patent publication US12252524B2, “GIP/GLP1 co-agonist compounds” (Eli Lilly and Company, priority 2018, dated 2025)
Numbered stars: 1 amine (or outer) side, 2 acyl side, 3 side chain; on linkers, the order of the positions; unused ones are H or OH. Square brackets hold non-standard residues; d marks the D form. Side chains are listed from the residue outwards. Peptide text beside a SMILES is read from it. * marks the point of attachment. C20 diacid = O=C(O)CCCCCCCCCCCCCCCCCCC(=O)*; C18 diacid = O=C(O)CCCCCCCCCCCCCCCCC(=O)*; αMePhe(2-F) = C[C@](N)(Cc1ccccc1F)C(=O)O; γGlu = O=C(O)[C@H](CCC(=O)[*:2])N[*:1]; αMeY = C[C@](N)(Cc1ccc(O)cc1)C(=O)O; 4Pal = N[C@@H](Cc1ccncc1)C(=O)O; αMeL = CC(C)C[C@](C)(N)C(=O)O; Orn = NCCC[C@H](N)C(=O)O; Dap = NC[C@H](N)C(=O)O; AEEA = NCCOCCOCC(=O)O; Aib = CC(C)(N)C(=O)O

Experiments:
human Gcg receptor = biological target: T1, human Gcg receptor (Homo sapiens, UniProt P47871); experiment: [125I]-Glucagon binding (SPA), human Gcg receptor; settings: read-out: hGLcgR Ki, nM (SEM, n)
T1 construct: expressed in transfected cells; crude membranes
Summary of the method: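 Cell pellets were lysed in hypotonic Tris buffer, pH 7.5, homogenized, and spun at low then high speed to give crude membranes. Ki was derived from the fitted IC50.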

human GIP receptor = biological target: T2, human GIP receptor (Homo sapiens, UniProt P48546); experiment: [125I]-GIP binding (SPA), human GIP receptor; settings: read-out: hGIPR Ki, nM (SEM, n)
T2 construct: expressed in transfected cells; crude membranes
T2 sequence (P48546 22-466): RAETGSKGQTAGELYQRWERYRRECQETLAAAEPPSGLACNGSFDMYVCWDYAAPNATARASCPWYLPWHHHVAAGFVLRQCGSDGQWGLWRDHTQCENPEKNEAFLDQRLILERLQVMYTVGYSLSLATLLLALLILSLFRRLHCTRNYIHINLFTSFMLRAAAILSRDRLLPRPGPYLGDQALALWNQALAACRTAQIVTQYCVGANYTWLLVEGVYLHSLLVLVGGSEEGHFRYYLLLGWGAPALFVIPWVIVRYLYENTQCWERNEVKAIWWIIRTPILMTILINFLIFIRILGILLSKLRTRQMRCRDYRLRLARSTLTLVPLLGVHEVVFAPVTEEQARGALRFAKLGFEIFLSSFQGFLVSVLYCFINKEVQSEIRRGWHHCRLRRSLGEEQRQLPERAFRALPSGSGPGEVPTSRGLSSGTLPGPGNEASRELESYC

[1] = biological target: human GLP-1 receptor (GLP-1R) (Homo sapiens, UniProt P43220); experiment: cAMP pharmacological functional assay in presence of casein, hGLP-1R; assay type: cell-based; settings: HEK293 cells expressing hGLP-1R, 0.1% Casein, geometric mean; read-out: hGLP1R cAMP Rel EC50 nM (SEM, n)
[2] = biological target: T3, gastric inhibitory peptide receptor (GIPR) (Homo sapiens, UniProt P48546); experiment: cAMP pharmacological functional assay in presence of casein, hGIPR; assay type: cell-based; settings: HEK293 cells expressing hGIPR, 0.1% Casein, geometric mean; read-out: hGIPR cAMP Rel EC50 nM (SEM, n)
T3 sequence (P48546 22-466): T2 sequence (P48546 22-466)

human GLP-1R = human GLP-1R (Homo sapiens, UniProt P43220); experiment: [125I]-GLP-1 binding (SPA), human GLP-1 receptor; parameters: expressed in transfected cells; crude membranes; settings: read-out: hGLP1R Ki, (nM) (SEM, n)
Summary of the method: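 Crude-membrane binding assay; one membrane prep included 1 mM MgCl2 and 25 units/ml DNAse I during lysis. Assay buffer at pH 7.4 contains 0.1% (w/v) bacitracin and 0.003% (w/v) TWEEN-20. Ki is reported as geometric mean.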

T1 sequence (P47871 26-477): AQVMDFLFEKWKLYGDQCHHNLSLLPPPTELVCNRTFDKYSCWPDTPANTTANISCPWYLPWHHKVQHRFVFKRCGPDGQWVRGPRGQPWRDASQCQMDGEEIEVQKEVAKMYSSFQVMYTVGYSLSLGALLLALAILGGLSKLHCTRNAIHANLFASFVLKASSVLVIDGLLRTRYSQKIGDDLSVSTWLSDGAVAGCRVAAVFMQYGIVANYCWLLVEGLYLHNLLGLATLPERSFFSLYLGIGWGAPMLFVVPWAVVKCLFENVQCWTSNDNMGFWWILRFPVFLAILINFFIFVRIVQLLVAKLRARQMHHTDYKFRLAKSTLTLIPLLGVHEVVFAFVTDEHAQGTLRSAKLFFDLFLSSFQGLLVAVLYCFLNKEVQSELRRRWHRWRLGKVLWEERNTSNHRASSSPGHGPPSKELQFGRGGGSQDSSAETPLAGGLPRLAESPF
human GLP-1 receptor (GLP-1R), sequence (P43220 24-463): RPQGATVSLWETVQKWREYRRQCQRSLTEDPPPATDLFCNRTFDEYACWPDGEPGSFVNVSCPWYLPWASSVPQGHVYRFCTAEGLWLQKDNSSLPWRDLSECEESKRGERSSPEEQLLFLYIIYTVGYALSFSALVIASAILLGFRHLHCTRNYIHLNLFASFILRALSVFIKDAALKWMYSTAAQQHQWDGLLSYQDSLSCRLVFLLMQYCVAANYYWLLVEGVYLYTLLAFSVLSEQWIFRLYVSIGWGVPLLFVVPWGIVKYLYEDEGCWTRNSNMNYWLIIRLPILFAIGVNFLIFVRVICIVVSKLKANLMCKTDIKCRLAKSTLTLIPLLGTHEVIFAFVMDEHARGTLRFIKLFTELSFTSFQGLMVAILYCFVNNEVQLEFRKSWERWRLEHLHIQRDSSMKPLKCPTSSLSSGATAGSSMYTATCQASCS
human GLP-1R, sequence (P43220 24-463): as above

Compound	Ki (human Gcg receptor) [nM]	Ki (human GIP receptor) [nM]	EC50 [1] [nM]	EC50 [2] [nM]	Ki (human GLP-1R) [nM]
CC[C@H](C)[C@H](NC(=O)[C@H](CC(C)C)NC(=O)[C@H](Cc1ccc(O)cc1)NC(=O)C(C)(C)NC(=O)[C@@H](NC(=O)[C@H](Cc1ccccc1)NC(=O)[C@H](CCC(=O)O)NC(=O)C(C)(C)NC(=O)[C@H](CCC(N)=O)NC(=O)[C@H](C)NC(=O)[C@H](CCCCNC(=O)COCCOCCNC(=O)COCCOCCNC(=O)CC[C@H](NC(=O)CCCCCCCCCCCCCCCCCCC(=O)O)C(=O)O)NC(=O)[C@H](CCC(=O)O)NC(=O)[C@H](CC(=O)O)NC(=O)[C@H](CC(C)C)NC(=O)[C@](C)(CC(C)C)NC(=O)[C@@H](NC(=O)[C@H](CO)NC(=O)[C@H](Cc1ccncc1)NC(=O)[C@H](CC(=O)O)NC(=O)[C@H](CO)NC(=O)[C@@H](NC(=O)[C@](C)(Cc1ccccc1F)NC(=O)[C@@H](NC(=O)CNC(=O)[C@H](CCC(=O)O)NC(=O)C(C)(C)NC(=O)[C@@H](N)Cc1ccc(O)cc1)[C@@H](C)O)[C@@H](C)O)[C@@H](C)CC)[C@@H](C)CC)C(=O)N[C@@H](CCC(=O)O)C(=O)NCC(=O)NCC(=O)N1CCC[C@H]1C(=O)N[C@@H](CO)C(=O)N[C@@H](CO)C(=O)NCC(=O)N[C@@H](C)C(=O)N1CCC[C@H]1C(=O)N1CCC[C@H]1C(=O)N1CCC[C@H]1C(=O)N[C@@H](CO)C(N)=O [Example 189] (H-Y[Aib]EGT[αMePhe(2-F)]TSD[4Pal]SI[αMeL]LDEK([AEEA-AEEA-γGlu-C20 diacid])AQ[Aib]EFI[Aib]YLIEGGPSSGAPPPS-NH2)	146	0.128	0.0608	0.0775	8.81
CC[C@H](C)[C@H](NC(=O)[C@H](CC(C)C)NC(=O)[C@H](Cc1ccc(O)cc1)NC(=O)[C@@H](CCC(=O)O)NC(=O)[C@@H](NC(=O)[C@H](Cc1ccccc1)NC(=O)[C@H](CCC(=O)O)NC(=O)C(C)(C)NC(=O)[C@H](CCC(N)=O)NC(=O)[C@H](C)NC(=O)[C@H](CCCCNC(=O)COCCOCCNC(=O)COCCOCCNC(=O)CC[C@H](NC(=O)CCCCCCCCCCCCCCCCC(=O)O)C(=O)O)NC(=O)[C@H](CN)NC(=O)[C@H](CC(=O)O)NC(=O)[C@H](CC(C)C)NC(=O)[C@](C)(CC(C)C)NC(=O)[C@@H](NC(=O)[C@H](CO)NC(=O)[C@H](Cc1ccc(O)cc1)NC(=O)[C@H](CC(=O)O)NC(=O)[C@H](CO)NC(=O)[C@@H](NC(=O)[C@](C)(Cc1ccccc1F)NC(=O)[C@@H](NC(=O)CNC(=O)[C@H](CCC(=O)O)NC(=O)C(C)(C)NC(=O)[C@@H](N)Cc1ccc(O)cc1)[C@@H](C)O)[C@@H](C)O)[C@@H](C)CC)[C@@H](C)CC)C(=O)N[C@@H](CCC(=O)O)C(=O)NCC(=O)NCC(=O)N1CCC[C@H]1C(=O)N[C@@H](CO)C(=O)N[C@@H](CO)C(=O)NCC(=O)N[C@@H](C)C(=O)N1CCC[C@H]1C(=O)N1CCC[C@H]1C(=O)N1CCC[C@H]1C(=O)N[C@@H](CO)C(N)=O [Example 210] (H-Y[Aib]EGT[αMePhe(2-F)]TSDYSI[αMeL]LD[Dap]K([AEEA-AEEA-γGlu-C18 diacid])AQ[Aib]EFI[dE]YLIEGGPSSGAPPPS-NH2)	> 1010	0.0399	0.0432	0.0383	1.58
CC[C@H](C)[C@H](NC(=O)[C@H](CC(C)C)NC(=O)[C@](C)(Cc1ccc(O)cc1)NC(=O)[C@@H](CCC(=O)O)NC(=O)[C@@H](NC(=O)[C@H](Cc1ccccc1)NC(=O)[C@H](C)NC(=O)C(C)(C)NC(=O)[C@H](CCC(N)=O)NC(=O)[C@H](C)NC(=O)[C@H](CCCCNC(=O)COCCOCCNC(=O)COCCOCCNC(=O)CC[C@H](NC(=O)CCCCCCCCCCCCCCCCC(=O)O)C(=O)O)NC(=O)[C@H](CCCN)NC(=O)[C@H](CC(=O)O)NC(=O)[C@H](CC(C)C)NC(=O)[C@](C)(CC(C)C)NC(=O)[C@@H](NC(=O)[C@H](CO)NC(=O)[C@H](CC(C)C)NC(=O)[C@H](CC(=O)O)NC(=O)[C@H](CO)NC(=O)[C@@H](NC(=O)[C@](C)(Cc1ccccc1F)NC(=O)[C@@H](NC(=O)CNC(=O)[C@H](CCC(=O)O)NC(=O)C(C)(C)NC(=O)[C@@H](N)Cc1ccc(O)cc1)[C@@H](C)O)[C@@H](C)O)[C@@H](C)CC)[C@@H](C)CC)C(=O)N[C@@H](CCC(=O)O)C(=O)NCC(=O)NCC(=O)N1CCC[C@H]1C(=O)N[C@@H](CO)C(=O)N[C@@H](CO)C(=O)NCC(=O)N[C@@H](C)C(=O)N1CCC[C@H]1C(=O)N1CCC[C@H]1C(=O)N1CCC[C@H]1C(=O)N[C@@H](CO)C(N)=O [Example 244] (H-Y[Aib]EGT[αMePhe(2-F)]TSDLSI[αMeL]LD[Orn]K([AEEA-AEEA-γGlu-C18 diacid])AQ[Aib]AFI[dE][αMeY]LIEGGPSSGAPPPS-NH2)	87.8	0.0308	0.0252	0.0225	0.82
CC[C@H](C)[C@H](NC(=O)[C@H](CC(C)C)NC(=O)[C@H](Cc1ccc(O)cc1)NC(=O)[C@H](CCC(=O)O)NC(=O)[C@@H](NC(=O)[C@H](Cc1ccccc1)NC(=O)[C@H](C)NC(=O)C(C)(C)NC(=O)[C@H](CCC(N)=O)NC(=O)[C@H](C)NC(=O)[C@H](CCCCNC(=O)COCCOCCNC(=O)COCCOCCNC(=O)CC[C@H](NC(=O)CCCCCCCCCCCCCCCCCCC(=O)O)C(=O)O)NC(=O)[C@H](CO)NC(=O)[C@H](CC(=O)O)NC(=O)[C@H](CC(C)C)NC(=O)[C@H](CC(C)C)NC(=O)[C@@H](NC(=O)[C@H](CO)NC(=O)[C@H](Cc1ccc(O)cc1)NC(=O)[C@H](CC(=O)O)NC(=O)[C@H](CO)NC(=O)[C@@H](NC(=O)[C@H](Cc1ccccc1)NC(=O)[C@@H](NC(=O)CNC(=O)[C@H](CCC(=O)O)NC(=O)C(C)(C)NC(=O)[C@@H](N)Cc1ccc(O)cc1)[C@@H](C)O)[C@@H](C)O)[C@@H](C)CC)[C@@H](C)CC)C(=O)N[C@@H](CCC(=O)O)C(=O)NCC(=O)NCC(=O)N1CCC[C@H]1C(=O)N[C@@H](CO)C(=O)N[C@@H](CO)C(=O)NCC(=O)N[C@@H](C)C(=O)N1CCC[C@H]1C(=O)N1CCC[C@H]1C(=O)N1CCC[C@H]1C(=O)N[C@@H](CO)C(N)=O [Example 9] (H-Y[Aib]EGTFTSDYSILLDSK([AEEA-AEEA-γGlu-C20 diacid])AQ[Aib]AFIEYLIEGGPSSGAPPPS-NH2)	375	0.127	0.194	0.21	14.9
CC[C@H](C)[C@H](NC(=O)[C@H](CC(C)C)NC(=O)[C@H](Cc1ccc(O)cc1)NC(=O)[C@H](CCC(=O)O)NC(=O)[C@@H](NC(=O)[C@H](Cc1ccccc1)NC(=O)[C@H](C)NC(=O)[C@H](CCC(N)=O)NC(=O)[C@H](CCC(N)=O)NC(=O)[C@H](C)NC(=O)[C@H](CCCCNC(=O)COCCOCCNC(=O)COCCOCCNC(=O)CC[C@H](NC(=O)CCCCCCCCCCCCCCCCCCC(=O)O)C(=O)O)NC(=O)[C@H](CCCCN)NC(=O)[C@H](CC(=O)O)NC(=O)[C@H](CC(C)C)NC(=O)[C@H](CC(C)C)NC(=O)[C@@H](NC(=O)[C@H](CO)NC(=O)[C@H](Cc1ccc(O)cc1)NC(=O)[C@H](CC(=O)O)NC(=O)[C@H](CO)NC(=O)[C@@H](NC(=O)[C@H](Cc1ccccc1)NC(=O)[C@@H](NC(=O)CNC(=O)[C@H](CCC(=O)O)NC(=O)C(C)(C)NC(=O)[C@@H](N)Cc1ccc(O)cc1)[C@@H](C)O)[C@@H](C)O)[C@@H](C)CC)[C@@H](C)CC)C(=O)N[C@@H](CCC(=O)O)C(=O)NCC(=O)NCC(=O)N1CCC[C@H]1C(=O)N[C@@H](CO)C(=O)N[C@@H](CO)C(=O)NCC(=O)N[C@@H](C)C(=O)N1CCC[C@H]1C(=O)N1CCC[C@H]1C(=O)N1CCC[C@H]1C(=O)N[C@@H](CO)C(N)=O [Example 254] (H-Y[Aib]EGTFTSDYSILLDKK([AEEA-AEEA-γGlu-C20 diacid])AQQAFIEYLIEGGPSSGAPPPS-NH2)	148	0.108	0.0553	0.215	2.58
